Earlier results, collected in patent US9023395B2, “Formulation of active agent loaded activated PLGA nanoparticles for targeted cancer nano-therapeutics” (University of North Texas Health Science Center at Fort …, priority 2007, dated 2015).

Conditions: for Solubility: solvent in which the linker is soluble

## O=C(CCN1C(=O)C=CC1=O)ON1C(=O)CCC1=O [BMPS, N-[b-maleimidopropyl-oxy] succinimide ester]
  water solubility: water insoluble
  Solubility: DMSO

## O=C(CCCC(=O)ON1C(=O)CCC1=O)ON1C(=O)CCC1=O [DSG, Disuccinimidyl glutarate]
  water solubility: water insoluble
  Solubility: DMSO

## CCCCCCCCCCCCCCCC(=O)ON1C(=O)CCC1=O [PAS, Palmitic acid N- hydroxysuccin- imide ester]
  Solubility: DMSO
